Measurements as given in ChEMBL document CHEMBL1156356, “Aromatase inhibitors from Broussonetia papyrifera” (J Nat Prod, 2001).

Biological target: T1, Aromatase (Homo sapiens, UniProt P11511)
T1 sequence (P11511 whole entry): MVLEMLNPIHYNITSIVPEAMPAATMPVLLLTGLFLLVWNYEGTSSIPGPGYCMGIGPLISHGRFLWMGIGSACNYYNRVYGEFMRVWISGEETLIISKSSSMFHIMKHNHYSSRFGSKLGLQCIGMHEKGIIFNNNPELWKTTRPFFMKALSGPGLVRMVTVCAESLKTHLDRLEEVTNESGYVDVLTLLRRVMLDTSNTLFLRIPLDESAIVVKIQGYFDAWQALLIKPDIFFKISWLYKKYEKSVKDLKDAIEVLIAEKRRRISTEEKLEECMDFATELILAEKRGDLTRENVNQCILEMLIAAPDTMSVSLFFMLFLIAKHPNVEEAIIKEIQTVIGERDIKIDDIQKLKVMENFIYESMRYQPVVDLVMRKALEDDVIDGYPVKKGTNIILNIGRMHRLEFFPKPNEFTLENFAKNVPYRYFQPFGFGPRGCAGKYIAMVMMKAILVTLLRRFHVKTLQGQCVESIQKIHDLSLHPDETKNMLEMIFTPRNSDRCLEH
Experiment: Inhibition of aromatase from human placental microsomes

| IC50 | Structure (SMILES) |
| --- | --- |
| 0.1 µM | CC(C)=CCc1cc(-c2oc3cc(O)cc(O)c3c(=O)c2O)ccc1O [ISOLICOFLAVONOL] |
| > 123 µM | COc1cc(O)ccc1CCCc1ccc(O)c(CC=C(C)C)c1 |
| > 94.2 µM | CC(C)=CCc1cc([C@H]2Oc3c(CC=C(C)C)c(O)cc(O)c3C(=O)[C@@H]2O)ccc1O |
| 9.7 µM | CC(C)=CCc1cc(-c2oc3c(CC=C(C)C)c(O)cc(O)c3c(=O)c2O)ccc1O [BROUSSOFLAVONOL F] |
| > 147 µM | O=C(/C=C/c1ccc(O)cc1O)c1ccc(O)cc1O |
| 31.1 µM | CC(C)=CCc1cc2cc(-c3cc(O)cc(O)c3)oc2cc1O [MORACIN N] |
| > 132 µM | COc1ccc(CCCc2ccc(O)c(OC)c2)c(OC)c1 [BROUSSONIN F] |
| > 165 µM | Oc1ccc([C@@H]2CCc3ccc(O)cc3O2)cc1 |
| > 155 µM | COc1cc(O)ccc1CCCc1ccc(O)cc1 [BROUSSONIN B] |
| > 123 µM | COc1cc(O)cc(-c2cc3ccc(O)cc3o2)c1CC=C(C)C [MORACIN I] |
| > 165 µM | Oc1cc(O)cc(-c2cc3ccc(O)cc3o2)c1 [MORACIN M] |
| 30 µM | COc1ccc(CCCc2ccc(O)cc2)c(O)c1 [BROUSSONIN A] |
| 0.4 µM | CC(C)=CCc1cc(C2CC(=O)c3c(O)cc(O)cc3O2)ccc1O (centres undefined) |
| > 91.2 µM | CC(C)=CCC/C(C)=C/Cc1c(O)cc2oc(-c3ccc(O)c(O)c3)c(O)c(=O)c2c1O |
| > 204 µM | CC1(C)C[C@H](O)C[C@@]2(C)OC(=O)C=C12 [LOLIOLIDE] |
| > 162 µM | CC(C)(O)[C@@H]1Cc2cc3ccc(=O)oc3cc2O1 [MARMESIN] |
| 31.1 µM | CC(C)=CCc1c(O)cc(O)cc1-c1cc2ccc(O)cc2o1 [DEMETHYLMORACIN I] |

| IC50 | Structure (SMILES) |
| --- | --- |
| 7.5 µM | CC1=C[C@@H]2c3c(O)cc(-c4cc5ccc(O)cc5o4)cc3O[C@]3(c4ccc(O)cc4O)Oc4cc(O)ccc4[C@@H](C1)C23 (some centres undefined) [ALBANOL A] |
| > 266 µM | O=c1ccc2c(o1)CCCC2 |
| > 88.4 µM | COc1c(-c2ccc(O)c(O)c2)oc2cc(O)c(C/C=C(\C)CCC=C(C)C)c(O)c2c1=O |
| > 139 µM | COc1ccc(CCCc2ccc(OC)c(O)c2)c(O)c1 [BROUSSONIN E] |
| > 118 µM | CC(C)=CCc1cc(C(=O)/C=C/c2ccc(O)c(O)c2)c(O)cc1O [BROUSSOCHALCONE A] |
| 3.4 µM | CC(C)=CCc1c(O)ccc2c1O[C@H](c1ccc(O)cc1O)CC2=O |
| > 129 µM | CC(C)=CCc1cc([C@@H]2CCc3ccc(O)cc3O2)ccc1O |
| > 131 µM | O=C1c2c(O)cc(O)cc2O[C@H](c2ccc(O)cc2O)[C@H]1O [DIHYDROMORIN] |
| > 164 µM | Oc1ccc(CCCc2ccc(O)cc2O)cc1 |
| > 130 µM | CC1(C)C=Cc2c(O)cc(-c3cc4ccc(O)cc4o3)cc2O1 [MORACIN D] |
| > 139 µM | O=C1c2c(O)cc(O)cc2O[C@H](c2ccc(O)cc2)[C@H]1O [DIHYDROKAEMPFEROL] |
| > 123 µM | CC(C)=CCc1c(O)ccc(C(=O)/C=C/c2ccc(O)cc2)c1O [ISOBAVACHALCONE] |
| > 123 µM | CC(C)=CCc1cc(C(=O)/C=C/c2ccc(O)cc2)c(O)cc1O [BROUSSOCHALCONE B] |
| > 123 µM | CC(C)=CCc1cc2c(cc1O)O[C@H](c1ccc(O)cc1)CC2=O [BAVACHIN] |
| > 128 µM | CC(C)=CCc1c(O)ccc(CCCc2ccc(O)cc2)c1O |
| > 108 µM | CC(C)=CCc1c(O)cc2oc(-c3ccc(O)c(O)c3)c(O)c(=O)c2c1O [GANCAONIN P] |
| 0.1 µM | CC(C)(O)C1Cc2c(ccc3c2O[C@H](c2ccc(O)cc2O)CC3=O)O1 (some centres undefined) |
